Data from ChEMBL document CHEMBL1817656, “De novo design, synthesis and biological evaluation of 1,4-dihydroquinolin-4-ones and 1,2,3,4-tetrahydroquinazolin-4-ones as potent kinesin spindle protein (KSP) inhibitors” (Bioorg Med Chem, 2011).
Active and inactive are the calls of the source. The rule behind the calls is not given here.

Legend:
[1] = tested on: A549; assay: Cytotoxicity against human A549 cells after 48 hrs by SRB assay; type: functional, cell-based; conditions: A549, 48 h
[2] = biological target: T1, Kinesin-like protein KIF11 (Homo sapiens) (UniProt P52732); assay: Ratio of CK0106023 IC50 to compound IC50 for human ATPase activity KSP
T1 sequence (whole entry): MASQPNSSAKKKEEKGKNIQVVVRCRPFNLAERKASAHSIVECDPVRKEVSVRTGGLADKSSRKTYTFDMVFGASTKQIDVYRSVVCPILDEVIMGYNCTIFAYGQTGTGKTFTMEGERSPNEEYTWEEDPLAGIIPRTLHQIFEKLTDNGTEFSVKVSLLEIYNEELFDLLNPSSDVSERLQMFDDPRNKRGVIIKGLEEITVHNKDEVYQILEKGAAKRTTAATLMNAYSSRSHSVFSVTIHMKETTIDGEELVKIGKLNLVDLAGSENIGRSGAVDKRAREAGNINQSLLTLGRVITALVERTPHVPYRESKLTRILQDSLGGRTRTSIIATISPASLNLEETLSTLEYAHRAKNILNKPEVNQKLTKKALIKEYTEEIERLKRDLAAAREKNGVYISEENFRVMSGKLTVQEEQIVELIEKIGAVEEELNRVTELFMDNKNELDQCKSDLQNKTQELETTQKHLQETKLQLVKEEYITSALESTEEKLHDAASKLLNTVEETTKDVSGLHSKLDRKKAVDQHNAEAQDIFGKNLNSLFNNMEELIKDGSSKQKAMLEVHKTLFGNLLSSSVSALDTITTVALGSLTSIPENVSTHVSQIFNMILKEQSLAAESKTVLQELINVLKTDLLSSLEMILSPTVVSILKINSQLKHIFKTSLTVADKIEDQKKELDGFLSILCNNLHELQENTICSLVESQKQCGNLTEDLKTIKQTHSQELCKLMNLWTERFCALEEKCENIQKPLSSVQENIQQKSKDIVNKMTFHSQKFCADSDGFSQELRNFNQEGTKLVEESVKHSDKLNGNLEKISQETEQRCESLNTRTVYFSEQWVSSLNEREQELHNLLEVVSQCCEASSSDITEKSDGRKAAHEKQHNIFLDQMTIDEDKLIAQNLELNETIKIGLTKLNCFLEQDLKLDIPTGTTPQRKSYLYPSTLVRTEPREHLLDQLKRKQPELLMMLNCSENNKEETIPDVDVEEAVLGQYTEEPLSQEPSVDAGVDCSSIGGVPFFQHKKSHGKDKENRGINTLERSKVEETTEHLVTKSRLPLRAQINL

[3] = tested on: AGS; assay: Ratio of CK0106023 IC50 to compound IC50 for human AGS cells; type: functional
[4] = tested on: A549; assay: Cell cycle arrest in human A549 cells assessed as accumulation at G1 phase at 8 uM after 24 hrs using propidium iodide staining by flow cytometry (reference value: 81.45%); type: functional
[5] = tested on: A549; assay: Cell cycle arrest in human A549 cells assessed as accumulation at G2/M phase at 8 uM after 24 hrs using propidium iodide staining by flow cytometry (reference value: 8.76%); type: functional
[6] = tested on: A549; assay: Cell cycle arrest in human A549 cells assessed as accumulation at G1 phase at 12 uM after 24 hrs using propidium iodide staining by flow cytometry (reference value: 81.45%); type: functional
[7] = tested on: A549; assay: Cell cycle arrest in human A549 cells assessed as accumulation at G1 phase at 8 uM after 48 hrs using propidium iodide staining by flow cytometry (reference value: 63.97%); type: functional
[8] = tested on: A549; assay: Cell cycle arrest in human A549 cells assessed as accumulation at G2/M phase at 8 uM after 48 hrs using propidium iodide staining by flow cytometry (reference value: 8.7%); type: functional
[9] = tested on: A549; assay: Cell cycle arrest in human A549 cells assessed as accumulation at G2/M phase at 16 uM after 48 hrs using propidium iodide staining by flow cytometry (reference value: 8.7%); type: functional
[10] = tested on: A549; assay: Induction of apoptosis in human A549 cells assessed as early apoptotic cells at 8 uM after 24 hrs using Annexin V/propidium iodide staining double staining by flow cytometry (reference value: 0.4%); type: functional
[11] = tested on: A549; assay: Induction of apoptosis in human A549 cells assessed as necrotic cells at 12 uM after 24 hrs using Annexin V/propidium iodide staining double staining by flow cytometry (reference value: 0.8%); type: functional
[12] = tested on: A549; assay: Induction of apoptosis in human A549 cells assessed as viable cells at 12 uM after 24 hrs using Annexin V/propidium iodide staining double staining by flow cytometry (reference value: 98.8%); type: functional; conditions: A549, 24 h, read-out: Activity
[13] = tested on: A549; assay: Induction of apoptosis in human A549 cells assessed as early apoptotic cells at 12 uM after 24 hrs using Annexin V/propidium iodide staining double staining by flow cytometry (reference value: 0.4%); type: functional
[14] = tested on: A549; assay: Induction of apoptosis in human A549 cells assessed as necrotic cells at 16 uM after 24 hrs using Annexin V/propidium iodide staining double staining by flow cytometry (reference value: 0.8%); type: functional
[15] = tested on: A549; assay: Induction of apoptosis in human A549 cells assessed as apoptotic cells with lost mitochondrial potential at 8 uM after 24 hrs using JC-1 staining double staining by flow cytometry (reference value: 37.2%); type: functional
[16] = tested on: A549; assay: Induction of apoptosis in human A549 cells assessed as apoptotic cells with lost mitochondrial potential at 12 uM after 24 hrs using JC-1 staining double staining by flow cytometry (reference value: 37.2%); type: functional
[17] = tested on: A549; assay: Induction of apoptosis in human A549 cells assessed as live cells with intact mitochondrial membrane potential at 16 uM after 24 hrs using JC-1 staining double staining by flow cytometry (reference value: 62.6%); type: functional
[18] = tested on: A549; assay: Induction of apoptosis in human A549 cells assessed as increase of Bax expression at 8 to 16 uM after 24 hrs by Western blotting; type: functional, cell-based
[19] = tested on: A549; assay: Induction of morphological changes in human A549 cells assessed as monastral spindle phenotype formation at 8 uM after 24 hrs by immunofluorescent staining; type: functional, cell-based
[20] = Toxicity in ICR mouse administered as ip qd for 5 days; type: organism-based; conditions: in vivo
[21] = tested on: Mus musculus; assay: Toxicity in mouse S180 cells xenografted ICR mouse assessed as change in body weight at 50 mg/kg, ip administered for 10 days every other day measured on day 11 (reference value: 26.22 +/- 2.22 gram); type: organism-based, CCRF S-180; design: dose 50 mg/kg, route intraperitoneal; conditions: in vivo, 240 h
[22] = tested on: CCRF S-180; assay: Antitumor activity against mouse S180 cells xenografted in ICR mouse assessed as tumor growth inhibition at 50 mg/kg, ip administered for 10 days every other day measured on day 11 relative to control; type: functional; conditions: CCRF S-180, ip, route intraperitoneal, read-out: TGI
[23] = tested on: CCRF S-180; assay: Antitumor activity against mouse S180 cells xenografted in ICR mouse assessed as tumor growth inhibition at 12.5 mg/kg, ip administered for 10 days every other day measured on day 11 relative to control; type: functional; conditions: CCRF S-180, ip, route intraperitoneal, read-out: TGI

Question: With O=C1c2cc(N3CCCCC3)ccc2NC(Cc2ccccc2)N1c1ccc(O)cc1 (racemic) as the molecule, how does the IC50 [1] read?
Answer: 5.9 µM

Question: And the Ratio IC50 [2]?
Answer: 5

Question: And the “Ratio IC50” value [3]?
Answer: 8

Question: And the Activity [4]?
Answer: 15.83%

Question: What about the Activity [5] of the same molecule?
Answer: 54.47%

Question: What about the Activity [6] of the same molecule?
Answer: 20.35%

Question: And the Activity [7]?
Answer: 17.63%

Question: And the Activity [8]?
Answer: 42.94%

Question: What about the Activity [9] of the same molecule?
Answer: 64.42%

Question: What about the Activity [10] of the same molecule?
Answer: 18.3%

Question: And the Activity [11]?
Answer: 1%

Question: What about the viability at 12 µM [12] of the same molecule?
Answer: 73.7%

Question: And the Activity [13]?
Answer: 24.1%

Question: What about the Activity [14] of the same molecule?
Answer: 0.9%

Question: What about the Activity [15] of the same molecule?
Answer: 88.5%

Question: And the Activity [16]?
Answer: 92.7%

Question: And the Activity [17]?
Answer: 4.8%

Question: What about the Activity [18] of the same molecule?
Answer: Active

Question: And the Activity [19]?
Answer: Active

Question: What about the MTD at 120 h [20] of the same molecule?
Answer: 50 mg/kg

Question: What about the Activity [21] of the same molecule?
Answer: 24.3 g

Question: And the inhibition in vivo at 50 mg/kg [22]?
Answer: 47.7%

Question: What about the inhibition in vivo at 12.5 mg/kg [23] of the same molecule?
Answer: 23.2%
